Assay results: patent publication US20240216369A1, “THE USE OF A SPLICING MODULATOR FOR A TREATMENT SLOWING PROGRESSION OF HUNTINGTON'S DISEASE” (Novartis AG, priority 2019, published 2024)
Entries after “also recorded” stand apart in the source; their conditions may differ.

Experiments:
[1] = tested on: total HTT transcript; assay: Repeat oral dosing in BacHD mice: total HTT transcript in blood; format: in vivo; conditions: 12 or 24 mg/kg oral, thrice weekly for three weeks; listed as branaplam
Protocol: For the repeat dosing study, twenty-four BacHD mice (FVB/N-Tg(HTT*97Q)IXwy/J transgenic mice—Jackson Laboratories) were used for the experiment. Animal protocols were approved by the Children's Hospital of Philadelphia Institutional Animal Care and use Committee. Mice were housed in a temperature-controlled environment on a 12-h light/dark cycle. Food and water were provided ad libitum.
For the repeat dosing study, branaplam or vehicle was administered by oral gavage 3 times a week for 3 consecutive weeks. Mice were divided in 4 groups (n=6 mice/group) and treated with branaplam (12 mg/kg—1 group, or 24 mg/kg—2 groups), or vehicle (1 groups) as control. […] The amount of branaplam or vehicle administrated to each mouse was based on the weight recorded the day of dosing. […]
RNA from blood was extracted using PAXgene blood RNA kit (Qiagen) according to manufacturer protocol. The RNA was quantified by Nanodrop 2000 (Thermo Scientific). cDNAs were synthesized from 140-400 ng RNA using Maxima First strand cDNA synthesis kit using a mix of oligo dT and random hexamers (Thermo Scientific) in 20 uL reaction at 25° C. for 10 min, 50° C. for 15 min then 85° C. for 5 min. Quantitative PCR was performed using Taqman Fast Advanced master mix (Thermo Scientific) in 20 uL with 4 uL of cDNA reaction and primers specific for each genes. […]

[2] = tested on: mutant HTT protein; assay: Repeat dose timecourse study in BacHD mice: HTT protein (Western blot); format: in vivo
Protocol: At 72 h 168 h, 240 h and 336 h (branaplam 24 mg/kg) after the last treatment (vehicle or 24 mg/kg branaplam for 1 week or 3 weeks), blood, CSF, and tissue samples were obtained for PK and PD analysis. To collect CSF, mice were placed in a rodent anesthesia induction chamber where they are exposed to 4-5% isoflurane in 100% oxygen carrier gas. Once an appropriate plane of anesthesia was achieved, they were moved to a nose cone so that maintenance levels of isoflurane (1-3%) could be delivered throughout the procedure. The dorsal aspect of their cervical and occipital region was surgically prepped to visualize the dura mater under a microscope. A glass micropipette attached to a micromanipulator was introduced to the cisterna magna via a puncture through the dura mater at a point where no vasculature was visualized, and CSF was allowed to flow into the micropipette via capillary action. After approximately 15-30 minutes, the micropipette was removed from the cisterna magna, the CSF sample was transferred into Eppendorf tubes, flash frozen in liquid nitrogen, and stored at −80° C.
Following CSF collection, mice were kept under anesthesia with isoflurane. Blood was obtained via submandibular vein bleeds and collected for RNA extraction (PD analysis) using RNAprotect Animal Blood Tubes, and plasma (PK analysis) using K2EDTA coated tubes. Cells were removed from plasma by centrifugation for 10 min at 2000×g at 4° C., and plasma samples were stored at −80° C. Following blood collection, mice were given a lethal dose of ketamine/xylazine ([…] of a 10 mg:1 mg), and perfused with 18 mL of 0.9% cold saline mixed with 2 mL of RNAlater (Ambion) solution for tissue collection. Liver, skeletal muscle, brain striatum, brain cortex, hemibrain and cerebellum samples were flash frozen in liquid nitrogen and stored at −80° C.
Snap-frozen mouse tissue samples were homogenized in RIPA buffer with protease and phosphatase inhibitor (Thermo Scientific) by Precellys at 6000 rpm for 40 sec. Supernatant was obtained by centrifugation for 20 min at 13,000 rpm at 4° C. Total protein concentration was quantified using the BCA protein Assay (Thermo Scientific). Samples were resolved in 3-8% Tris-Acetate protein gel under reducing condition. Proteins were transferred onto PVDF membrane (Millipore) and western blot analysis was performed using […] anti-Huntingtin antibody (Millipore #MAB2166), mouse anti-actin (Sigma, #A5316) and mouse anti-vinculin (Bio-Rad, #MCA465). Protein bands were quantified by Image J.
With a view to characterize the time course of HTT protein lowering and recovery and to better model the PK-PD relationship an extended time-course study was performed. BacHD mice received three weekly, oral doses of 24 mg/kg branaplam for three weeks. […]

[3] = 24 mg/kg, 3 weeks, time after last dose

In the case of `CC1(C)CC(Oc2ccc(-c3ccc(-c4cn[nH]c4)cc3O)nn2)CC(C)(C)N1` [Compound 18, 5-(1H-pyrazol-4-yl)-2-(6-((2,2,6,6-tetramethylpiperidin-4-yl)oxy)pyridazin-3-yl)phenol], the “total HTT transcript in blood” value [1] is reported as “robust lowering; also recorded: lowers”, the “maximal HTT protein lowering (relative to vehicle)” value ([2]; 24 mg/kg oral three times weekly for 3 weeks, 72 h after last dose) is reported as “approximately 45%” and the “mutant HTT protein, 1 week versus 3 weeks of dosing” value ([2]; 24 mg/kg oral, three times weekly) is reported as “time-dependent lowering trend”. For the same compound, the “return of HTT protein to baseline, cortex” value [2, 3] was 72 to 168 h and the “return of HTT protein to baseline, striatum” value [2, 3] was 72 to 336 h.
